Test results published in patent publication US6489469B1, “Method for storing or transporting erythritol solution” (Nikken Chemicals Co., Ltd., priority 1999, dated 2002).

Tests used:
[1] = system: Aspergillus flavus IFO 6343; experiment: Viable Count of Aspergillus flavus IFO 6343 in Erythritol Solution; type: cell-based
Method: (§1) Erythritol solutions of respective concentrations in the range of from 30 to 60% were prepared. To these were inoculated Staphylococcus aureus IFO 13276, Bacillus subtilis IFO 3134, and Escherichia coli IFO 3972 as bacteria, Candida albicans IFO 1549 and Saccharomyces cerevisiae ATCC 9763 as yeasts, Aspergillus niger IFO 6342, Aspergillus flavus IFO 6343, and Penicillium funiculosum IFO 6345 as fungi, respectively, in a population (concentration) of 10,000 cells/mL or more. After the inoculation, the solutions were stored at 30, 37, 45, 50, or 60° C., respectively, for 56 days and the number of viable cell was determined daily. The determination of the number of viable cell was performed by a method of coating 0.1 mL of appropriately diluted sample cultivation on an agar plate and cultivating and counting the number of viable cell (the number of colony) that grew after the cultivation.

[2] = system: Staphylococcus aureus IFO 13276; experiment: Viable Count of Staphylococcus aureus IFO 13276 in Erythritol Solution; type: cell-based
Method: as §1

## OC[C@@H](O)[C@@H](O)CO [Erythritol Solution, erythritol]
[1]; 45° C., 30% w/w, Day 0
  The Number of Viable Cell: ≥ 10000 cells/mL
[1]; 45° C., 30% w/w, Day 3
  The Number of Viable Cell: ≥ 10000 cells/mL
[1]; 45° C., 30% w/w, Day 7
  The Number of Viable Cell: ≥ 10000 cells/mL
[1]; 45° C., 30% w/w, Day 14
  The Number of Viable Cell: ≥ 10000 cells/mL
[1]; 45° C., 30% w/w, Day 28
  The Number of Viable Cell: 0 cells/mL
[1]; 45° C., 30% w/w, Day 56
  The Number of Viable Cell: 0 cells/mL
[1]; 45° C., 40% w/w, Day 0
  The Number of Viable Cell: ≥ 10000 cells/mL
[1]; 45° C., 40% w/w, Day 3
  The Number of Viable Cell: ≥ 10000 cells/mL
[1]; 45° C., 40% w/w, Day 7
  The Number of Viable Cell: ≥ 10000 cells/mL
[1]; 45° C., 40% w/w, Day 14
  The Number of Viable Cell: ≥ 10000 cells/mL
[1]; 45° C., 40% w/w, Day 28
  The Number of Viable Cell: 0 cells/mL
[1]; 45° C., 40% w/w, Day 56
  The Number of Viable Cell: 0 cells/mL
[1]; 45° C., 50% w/w, Day 0
  The Number of Viable Cell: ≥ 10000 cells/mL
[1]; 45° C., 50% w/w, Day 3
  The Number of Viable Cell: ≥ 10000 cells/mL
[1]; 45° C., 50% w/w, Day 7
  The Number of Viable Cell: ≥ 10000 cells/mL
[1]; 45° C., 50% w/w, Day 14
  The Number of Viable Cell: 0 cells/mL
[1]; 45° C., 50% w/w, Day 28
  The Number of Viable Cell: 0 cells/mL
[1]; 45° C., 50% w/w, Day 56
  The Number of Viable Cell: 0 cells/mL
[1]; 50° C., 30% w/w, Day 0
  The Number of Viable Cell: ≥ 10000 cells/mL
[1]; 50° C., 30% w/w, Day 3
  The Number of Viable Cell: 0 cells/mL
[1]; 50° C., 30% w/w, Day 7
  The Number of Viable Cell: 0 cells/mL
[1]; 50° C., 30% w/w, Day 14
  The Number of Viable Cell: 0 cells/mL
[1]; 50° C., 30% w/w, Day 28
  The Number of Viable Cell: 0 cells/mL
[1]; 50° C., 30% w/w, Day 56
  The Number of Viable Cell: 0 cells/mL
[1]; 50° C., 40% w/w, Day 0
  The Number of Viable Cell: ≥ 10000 cells/mL
[1]; 50° C., 40% w/w, Day 3
  The Number of Viable Cell: 0 cells/mL
[1]; 50° C., 40% w/w, Day 7
  The Number of Viable Cell: 0 cells/mL
[1]; 50° C., 40% w/w, Day 14
  The Number of Viable Cell: 0 cells/mL
[1]; 50° C., 40% w/w, Day 28
  The Number of Viable Cell: 0 cells/mL
[1]; 50° C., 40% w/w, Day 56
  The Number of Viable Cell: 0 cells/mL
[1]; 50° C., 50% w/w, Day 0
  The Number of Viable Cell: ≥ 10000 cells/mL
[1]; 50° C., 50% w/w, Day 3
  The Number of Viable Cell: 0 cells/mL
[1]; 50° C., 50% w/w, Day 7
  The Number of Viable Cell: 0 cells/mL
[1]; 50° C., 50% w/w, Day 14
  The Number of Viable Cell: 0 cells/mL
[1]; 50° C., 50% w/w, Day 28
  The Number of Viable Cell: 0 cells/mL
[1]; 50° C., 50% w/w, Day 56
  The Number of Viable Cell: 0 cells/mL
[1]; temperature of 50° C. or more
  growth of the microbes: prevented from growing
  time after which microbes died: 3 days
[2]; 30° C., 30% w/w, Day 0
  The Number of Viable Cell: 10000 or more cells/mL
[2]; 30° C., 30% w/w, Day 3
  The Number of Viable Cell: 20400 cells/mL
[2]; 30° C., 30% w/w, Day 7
  The Number of Viable Cell: 11100 cells/mL
[2]; 30° C., 30% w/w, Day 14
  The Number of Viable Cell: 360 cells/mL
[2]; 30° C., 30% w/w, Day 28
  The Number of Viable Cell: 0 cells/mL
[2]; 30° C., 30% w/w, Day 56
  The Number of Viable Cell: 0 cells/mL
[2]; 30° C., 40% w/w, Day 0
  The Number of Viable Cell: 10000 or more cells/mL
[2]; 30° C., 40% w/w, Day 3
  The Number of Viable Cell: 8380 cells/mL
[2]; 30° C., 40% w/w, Day 7
  The Number of Viable Cell: 6200 cells/mL
[2]; 30° C., 40% w/w, Day 14
  The Number of Viable Cell: 4200 cells/mL
[2]; 30° C., 40% w/w, Day 28
  The Number of Viable Cell: 0 cells/mL
[2]; 30° C., 40% w/w, Day 56
  The Number of Viable Cell: 0 cells/mL
[2]; 45° C., 30% w/w, Day 0
  The Number of Viable Cell: 10000 or more cells/mL
[2]; 45° C., 30% w/w, Day 3
  The Number of Viable Cell: 0 cells/mL
[2]; 45° C., 30% w/w, Day 7
  The Number of Viable Cell: 0 cells/mL
[2]; 45° C., 30% w/w, Day 14
  The Number of Viable Cell: 0 cells/mL
[2]; 45° C., 30% w/w, Day 28
  The Number of Viable Cell: 0 cells/mL
[2]; 45° C., 30% w/w, Day 56
  The Number of Viable Cell: 0 cells/mL
[2]; 45° C., 40% w/w, Day 0
  The Number of Viable Cell: 10000 or more cells/mL
[2]; 45° C., 40% w/w, Day 3
  The Number of Viable Cell: 0 cells/mL
[2]; 45° C., 40% w/w, Day 7
  The Number of Viable Cell: 0 cells/mL
[2]; 45° C., 40% w/w, Day 14
  The Number of Viable Cell: 0 cells/mL
[2]; 45° C., 40% w/w, Day 28
  The Number of Viable Cell: 0 cells/mL
[2]; 45° C., 40% w/w, Day 56
  The Number of Viable Cell: 0 cells/mL
[2]; 45° C., 50% w/w, Day 0
  The Number of Viable Cell: 10000 or more cells/mL
[2]; 45° C., 50% w/w, Day 3
  The Number of Viable Cell: 0 cells/mL
[2]; 45° C., 50% w/w, Day 7
  The Number of Viable Cell: 0 cells/mL
[2]; 45° C., 50% w/w, Day 14
  The Number of Viable Cell: 0 cells/mL
[2]; 45° C., 50% w/w, Day 28
  The Number of Viable Cell: 0 cells/mL
[2]; 45° C., 50% w/w, Day 56
  The Number of Viable Cell: 0 cells/mL
[2]; 50° C., 30% w/w, Day 0
  The Number of Viable Cell: 10000 or more cells/mL
[2]; 50° C., 30% w/w, Day 3
  The Number of Viable Cell: 0 cells/mL
[2]; 50° C., 30% w/w, Day 7
  The Number of Viable Cell: 0 cells/mL
